Laboratory results as given in patent publication US20060252807A1, “Novel ortho-terphenyl inhibitors of p38 kinase and methods of treating inflammatory disorders” (Kalypsys, Inc., priority 2005, published 2006).

What was measured:
[1] = molecular target: T1, active p38 alpha enzyme (Upstate Biotechnology) (Homo sapiens, UniProt Q16539); assay: p38α biochemical assay (ATP turnover, luminescent detection, Cambrex PKlight); settings: Table 1 Biological Activity
T1 construct: purchased Upstate Biotechnology
T1 sequence (Q16539 whole entry): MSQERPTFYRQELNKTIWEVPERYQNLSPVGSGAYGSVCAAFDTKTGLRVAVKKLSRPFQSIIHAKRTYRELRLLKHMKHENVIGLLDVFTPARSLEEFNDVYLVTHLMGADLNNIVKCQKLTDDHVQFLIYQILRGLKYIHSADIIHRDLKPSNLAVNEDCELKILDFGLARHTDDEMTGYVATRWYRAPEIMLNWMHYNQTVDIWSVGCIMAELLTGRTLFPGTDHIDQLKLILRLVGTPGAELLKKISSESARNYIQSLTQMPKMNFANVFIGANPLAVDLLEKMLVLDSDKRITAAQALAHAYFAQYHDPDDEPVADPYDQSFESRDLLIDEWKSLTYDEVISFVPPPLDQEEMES
Procedure, shortened: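 Luminescent PKlight readout of total ATP consumption follows a 2 h, 30C kinase reaction. Enzyme and MapkapK2 substrate run with 1.4 uM ATP (final) in buffer containing Mg2+, Ca2+, chelators, glycerol, reducing agent and BSA; test compounds added by pintool from DMSO.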

TNF-α production = TNF-α production by LPS-stimulated rats (ELISA); type: in vivo, Male Lewis rats; settings: rat, −1 hr before LPS
Description: TNF-α Production by LPS-Stimulated Mice
Male Lewis rats (180-200 g) were injected intraperitoneally with lipopolysaccharide (LPS) (50 μg/kg of E. coli strain 0111:B4, Sigma) suspended in sterile saline. Ninety minutes later, mice were sedated by CO2:O2 inhalation and a blood sample was obtained. Serum was separated and analyzed for TNF-α concentrations by commercial ELISA assay per the manufacturer's instructions (R&D Bioscience). Test compounds were administered orally at various times before LPS injection. The compounds were dosed either as suspensions or as solutions in various vehicles or solubilizing agents.
Compounds were dosed 0.5 to 3 hours before LPS stimulation. Rats were anaesthetized with Isofluor and injected i.v. with 0.3 mg/kg of LPS* in a volume of 0.3 ml sterile saline. Ninety minutes after the LPS injection, blood samples were collected into heparin tubes for preparation of plasma samples. Repression of TNFα production is assessed by commercial ELISA and reported below in Table 2.

[2] = read-out: LPS Induced TNF alpha (−1 hr) In Vivo (+) = >15% Inhibition (−) = ≦15% Inhibition

Compound	IC50 ([1]; p38α biochemical assay)	IC50 ([1]; p38α kinase)	inhibition at 10 mg/kg (TNF-α production; [2])	ED50 (TNF-α production; oral dosing, read-out: LPS Induced TNF alpha (−1 hr) In Vivo (+) = ED50 ≦ 10 (−) = ED50 > 10)	inhibition at 30 mg/kg (TNF-α production; dose 30 mg/kg, read-out: LPS Induced TNF alpha (−1 hr) In Vivo (+) = >15% Inhibition (−) = ≦15% Inhibition)
C#CCNC(=O)c1csc(-c2c(-c3ccc(F)cc3)n[nH]c2C)n1 [Example 78, 2-|3-(4-Fluoro-phenyl)-5-methyl-1H-pyrazol-4-yl|-thiazole-4-carboxylic acid prop-2-ynylamide]	≤ 1 µM	–	≤ 15%	–	–
CC(C)NC(=O)c1csc(-c2c(-c3ccc(F)cc3)ncn2C2CCNCC2)n1 [Example 91, 2-|5-(4-Fluoro-phenyl)-3-piperidin-4-yl-3H-imidazol-4-yl|-thiazole-4-carboxylic acid isopropylamide]	≤ 1 µM	–	> 15%	–	–
CC(C)NC(=O)c1csc(-c2c(-c3ccc(F)cc3)ncn2C2CCN(C(=O)CO)CC2)n1 [Example 93, 2-{5-(4-Fluoro-phenyl)-3-|1-(2-hydroxy-acetyl)-piperidin-4-yl|-3H-imidazol-4-yl}-thiazole-4-carboxylic acid isopropylamide]	≤ 1 µM	–	> 15%	–	–
CC(C)NC(=O)c1csc(-c2c(-c3ccc(F)cc3)n[nH]c2C2CCNCC2)n1 [Example 811]	–	≤ 1 µM	> 15%	–	–
CCNC(=O)c1csc(-c2c(-c3ccc(F)cc3)n[nH]c2C2CCNCC2)n1 [Example 2026]	–	≤ 1 µM	> 15%	–	–
C#CCNC(=O)c1csc(-c2c(-c3ccc(F)cc3)n[nH]c2C2CCNCC2)n1 [Example 2027]	–	≤ 1 µM	> 15%	–	–
O=C(NCc1cccnc1)c1csc(-c2c(-c3ccc(F)cc3)n[nH]c2C2CCNCC2)n1 [Example 2028]	–	≤ 1 µM	≤ 15%	–	–

Continued, in another order:

IC50 ([1]; p38α biochemical assay)	IC50 ([1]; p38α kinase)	Compound	inhibition at 10 mg/kg (TNF-α production; [2])	ED50 (TNF-α production; oral dosing, read-out: LPS Induced TNF alpha (−1 hr) In Vivo (+) = ED50 ≦ 10 (−) = ED50 > 10)	inhibition at 30 mg/kg (TNF-α production; dose 30 mg/kg, read-out: LPS Induced TNF alpha (−1 hr) In Vivo (+) = >15% Inhibition (−) = ≦15% Inhibition)
≤ 1 µM	–	CC(C)NC(=O)c1csc(-c2c(-c3ccc(F)cc3)noc2C2CCNCC2)n1 [Example 35, 2-|3-(4-Fluoro-phenyl)-5-piperidin-4-yl-isoxazol-4-yl|-thiazole-4-carboxylic acid isopropylamide]	≤ 15%	–	–
≤ 1 µM	–	Cc1nc(-c2ccc(F)cc2)c(-c2nc(C(=O)NC(C)C)cs2)o1 [Example 38]	> 15%	≤ 10 mg/kg	–
≤ 1 µM	–	CC(C)NC(=O)c1csc(-c2oc(CN3CCOCC3)nc2-c2ccc(F)cc2)n1 [Example 41, 2-|4-(4-Fluoro-phenyl)-2-morpholin-4-ylmethyl-oxazol-5-yl|-thiazole-4-carboxylic acid isopropylamide]	> 15%	–	–
≤ 1 µM	–	CC(C)NC(=O)c1csc(-c2oc(CN3CCNCC3)nc2-c2ccc(F)cc2)n1 [Example 44, 2-|4-(4-Fluoro-phenyl)-2-piperazin-1-ylmethyl-oxazol-5-yl|-thiazole-4-carboxylic acid isopropylamide]	≤ 15%	–	–
≤ 1 µM	–	Cc1nc(-c2ccc(F)cc2)c(-c2nc(C(=O)NC(C)C)cs2)s1 [Example 46, 4′-(4-Fluoro-phenyl)-2′-methyl-|2,5′|bithiazolyl-4-carboxylic acid isopropylamide]	–	–	> 15%
≤ 1 µM	–	CC(C)NC(=O)c1csc(-c2c(-c3ccc(F)cc3)n[nH]c2C2CCN(C(=O)CO)CC2)n1 [Example 62, 2-{3-(4-Fluoro-phenyl)-5-|1-(2-hydroxy-acetyl)-piperidin-4-yl|-1H-pyrazol-4-yl}thiazole-4-carboxylic acid isopropylamide]	> 15%	–	–
≤ 1 µM	–	CCNC(=O)c1csc(-c2c(-c3ccc(F)cc3)n[nH]c2C2CCN(C(=O)CO)CC2)n1 [Example 64, 2-{3-(4-Fluoro-phenyl)-5-|1-(2-hydroxy-acetyl)-piperidin-4-yl|-1H-pyrazol-4-yl}-thiazole-4-carboxylic acid ethylamide]	≤ 15%	–	–
≤ 1 µM	–	C#CCNC(=O)c1csc(-c2c(-c3ccc(F)cc3)n[nH]c2C2CCN(C(=O)CO)CC2)n1 [Example 66, 2-{3-(4-Fluoro-phenyl)-5-|1-(2-hydroxy-acetyl)-piperidin-4-yl|-1H-pyrazol-4-yl}-thiazole-4-carboxylic acid prop-2-ynylamide]	≤ 15%	–	–
≤ 1 µM	–	O=C(NCc1cccnc1)c1csc(-c2c(-c3ccc(F)cc3)n[nH]c2C2CCN(C(=O)CO)CC2)n1 [Example 68, 2-{3-(4-Fluoro-phenyl)-5-|1-(2-hydroxy-acetyl)-piperidin-4-yl|-1H-pyrazol-4-yl}thiazole-4-carboxylic acid (pyridin-3-ylmethyl)-amide]	> 15%	–	–
≤ 1 µM	–	CONC(=O)c1csc(-c2c(-c3ccc(F)cc3)n[nH]c2C2CCNCC2)n1 [Example 71, 2-|3-(4-Fluoro-phenyl)-5-piperidin-4-yl-1H-pyrazol-4-yl|-thiazole-4-carboxylic acid methoxy-amide]	≤ 15%	–	–
≤ 1 µM	–	Cc1[nH]nc(-c2ccc(F)cc2)c1-c1nc(C(=O)NCC2CC2)cs1 [Example 73, 2-|3-(4-Fluoro-phenyl)-5-methyl-1H-pyrazol-4-yl|-thiazole-4-carboxylic acid cyclopropylmethyl-amide]	≤ 15%	–	–
